Patent publication US9944602B2, “Piperidinone herbicides” (E. I. DU PONT DE NEMOURS AND COMPANY, priority 2014, dated 2018)

Legend:
Type in all cases: in vivo
[1] = tested on: barnyardgrass (Echinochloa crus-galli); assay: Test A preemergence barnyardgrass; conditions: 0 to 100 scale
How it was run: (§1)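 Visual injury rating, 0–100 scale (0 = no effect, 100 = complete control), versus untreated controls ~10 d after treatment in greenhouse. Pre: directed soil spray onto seeded loam/sand. Post: foliar spray at 2–10 cm, 1–2 leaf stage. Solvent-surfactant formulation.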

kochia (Kochia scoparia) [2] = assay: Test A preemergence kochia; conditions: 0 to 100 scale, 0 no effect, 100 complete control
How it was run: as §1

[3] = tested on: ragweed (common ragweed, Ambrosia elatior); assay: Test A preemergence ragweed; conditions: 0 to 100 scale, 0 no effect, 100 complete control
How it was run: as §1

[4] = tested on: ryegrass, Italian (Italian ryegrass, Lolium multiflorum); assay: Test A preemergence ryegrass, Italian; conditions: 0 to 100 scale, 0 no effect, 100 complete control
How it was run: as §1

[5] = tested on: foxtail, giant (giant foxtail, Setaria faberii); assay: Test A preemergence foxtail, giant; conditions: 0 to 100 scale, 0 no effect, 100 complete control
How it was run: as §1

[6] = tested on: pigweed (Amaranthus retroflexus); assay: Test A preemergence pigweed; conditions: 0 to 100 scale, 0 no effect, 100 complete control
How it was run: as §1

[7] = tested on: barnyardgrass (Echinochloa crus-galli); assay: Test A postemergence barnyardgrass; conditions: 0 to 100 scale, 0 is no effect, 100 is complete control
How it was run: as §1

kochia (Kochia scoparia) [8] = assay: Test A postemergence kochia; conditions: 0 to 100 scale, 0 is no effect, 100 is complete control
How it was run: as §1

[9] = tested on: ragweed (common ragweed, Ambrosia elatior); assay: Test A postemergence ragweed; conditions: 0 to 100 scale, 0 is no effect, 100 is complete control
How it was run: as §1

[10] = tested on: ryegrass, Italian (Italian ryegrass, Lolium multiflorum); assay: Test A postemergence ryegrass, Italian; conditions: 0 to 100 scale, 0 is no effect, 100 is complete control
How it was run: as §1

[11] = tested on: foxtail, giant (giant foxtail, Setaria faberii); assay: Test A postemergence foxtail, giant; conditions: 0 to 100 scale, 0 is no effect, 100 is complete control
How it was run: as §1

[12] = tested on: pigweed (Amaranthus retroflexus); assay: Test A postemergence pigweed; conditions: 0 to 100 scale, 0 is no effect, 100 is complete control
How it was run: as §1

[13] = tested on: wheat (Triticum aestivum); assay: Test A postemergence wheat; conditions: 0 to 100 scale, 0 is no effect, 100 is complete control
How it was run: as §1

corn (Zea mays) = assay: Test A postemergence corn; conditions: 0 to 100 scale, 0 is no effect, 100 is complete control
How it was run: as §1

[14] = tested on: blackgrass (Alopecurus myosuroides); assay: Test A postemergence blackgrass; conditions: 0 to 100 scale, 0 is no effect, 100 is complete control
How it was run: as §1

[15] = tested on: galium (catchweed bedstraw, Galium aparine); assay: Test A postemergence galium; conditions: 0 to 100 scale, 0 is no effect, 100 is complete control
How it was run: as §1

rice (Oryza sativa) [16] = assay: Test B flooded paddy test rice; conditions: Table B, Flood
How it was run: (§2)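 2-leaf plants; flood 3 cm over soil; cpd into paddy water; water depth kept; greenhouse 13–15 d; visual rating vs controls.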

[17] = tested on: sedge, umbrella (small-flower umbrella sedge, Cyperus difformis); assay: Test B flooded paddy test sedge, umbrella; conditions: Table B, Flood
How it was run: as §2

[18] = tested on: ducksalad (Heteranthera limosa); assay: Test B flooded paddy test ducksalad; conditions: Table B, Flood
How it was run: as §2

[19] = tested on: barnyardgrass (Echinochloa crus-galli); assay: Test B flooded paddy test barnyardgrass; conditions: Table B, Flood
How it was run: as §2

rice (Oryza sativa) [20] = assay: Test C flooded paddy test rice; conditions: Table C, Flood, scale 0 to 100
Text: (§3) Plant species in the flooded paddy test consisted of rice (Oryza sativa), sedge, umbrella (small-flower umbrella sedge, Cyperus difformis), ducksalad (Heteranthera limosa), and barnyardgrass (Echinochloa crus-galli) grown to the 2-leaf stage for testing. At time of treatment, test pots were flooded to 3 cm above the soil surface, treated by application of test compounds directly to the paddy water, and then maintained at that water depth for the duration of the test. Treated plants and controls were maintained in a greenhouse for 13 to 15 d, after which time all species were compared to controls and visually evaluated. Plant response ratings, summarized in Table C, are based on a scale of 0 to 100 where 0 is no effect and 100 is complete control. A dash (-) response means no test result.

[21] = tested on: sedge, umbrella (small-flower umbrella sedge, Cyperus difformis); assay: Test C flooded paddy test sedge, umbrella; conditions: Table C, Flood, scale 0 to 100
Text: as §3

[22] = tested on: ducksalad (Heteranthera limosa); assay: Test C flooded paddy test ducksalad; conditions: Table C, Flood, scale 0 to 100
Text: as §3

[23] = tested on: barnyardgrass (Echinochloa crus-galli); assay: Test C flooded paddy test barnyardgrass; conditions: Table C, Flood, scale 0 to 100
Text: as §3

Structure (SMILES): O=C1NCCC(c2cccc(C(F)(F)F)c2)C1C(=O)Nc1ccc(F)c(F)c1F (racemic) [Compound 28]
- Barnyardgrass plant response rating ([1]; 125 g ai/ha, 0 no effect, 100 complete control): 90
- Barnyardgrass plant response rating ([1]; 500 g ai/ha, 0 no effect, 100 complete control): 90
- Kochia plant response rating (kochia (Kochia scoparia) [2]; 125 g ai/ha): 20
- Kochia plant response rating (kochia (Kochia scoparia) [2]; 500 g ai/ha): 20
- Ragweed plant response rating ([3]; 125 g ai/ha): 0
- Ragweed plant response rating ([3]; 500 g ai/ha): 0
- Ryegrass, Italian plant response rating ([4]; 125 g ai/ha): 20
- Ryegrass, Italian plant response rating ([4]; 500 g ai/ha): 40
- Foxtail, Giant plant response rating ([5]; 125 g ai/ha): 90
- Foxtail, Giant plant response rating ([5]; 500 g ai/ha): 90
- Pigweed plant response rating ([6]; 125 g ai/ha): 0
- Pigweed plant response rating ([6]; 500 g ai/ha): 20
- Plant response rating, Barnyardgrass ([7]; 125 g ai/ha): 60
- Plant response rating, Barnyardgrass ([7]; 500 g ai/ha): 80
- Plant response rating, Kochia (kochia (Kochia scoparia) [8]; 125 g ai/ha): 0
- Plant response rating, Kochia (kochia (Kochia scoparia) [8]; 500 g ai/ha): 0
- Plant response rating, Ragweed ([9]; 125 g ai/ha): 0
- Plant response rating, Ragweed ([9]; 500 g ai/ha): 0
- Plant response rating, Ryegrass, Italian ([10]; 125 g ai/ha): 0
- Plant response rating, Ryegrass, Italian ([10]; 500 g ai/ha): 0
- Plant response rating, Foxtail, Giant ([11]; 125 g ai/ha): 70
- Plant response rating, Foxtail, Giant ([11]; 500 g ai/ha): 90
- Plant response rating, Pigweed ([12]; 125 g ai/ha): 0
- Plant response rating, Pigweed ([12]; 500 g ai/ha): 0
- Plant response rating, Wheat ([13]; 125 g ai/ha): 0
- Plant response rating, Wheat ([13]; 500 g ai/ha): 20
- Plant response rating, Corn (corn (Zea mays); 125 g ai/ha): 30
- Plant response rating, Corn (corn (Zea mays); 500 g ai/ha): 60
- Plant response rating, Blackgrass ([14]; 125 g ai/ha): 0
- Plant response rating, Blackgrass ([14]; 500 g ai/ha): 20
- Plant response rating, Galium ([15]; 125 g ai/ha): 0
- Plant response rating, Galium ([15]; 500 g ai/ha): 0
- Plant response rating (rice (Oryza sativa) [16]; 500 g ai/ha, scale 0 to 100): 15
- Plant response rating ([17]; 500 g ai/ha, scale 0 to 100): 0
- Plant response rating ([18]; 500 g ai/ha, scale 0 to 100): 85
- Plant response rating ([19]; 500 g ai/ha, scale 0 to 100): 100
- Plant response rating (rice (Oryza sativa) [20]; 31 g ai/ha): 0
- Plant response rating (rice (Oryza sativa) [20]; 62 g ai/ha): 0
- Plant response rating (rice (Oryza sativa) [20]; 125 g ai/ha): 0
- Plant response rating (rice (Oryza sativa) [20]; 250 g ai/ha): 0
- Plant response rating ([21]; 31 g ai/ha): 0
- Plant response rating ([21]; 62 g ai/ha): 0
- Plant response rating ([21]; 125 g ai/ha): 0
- Plant response rating ([21]; 250 g ai/ha): 0
- Plant response rating ([22]; 31 g ai/ha): 45
- Plant response rating ([22]; 62 g ai/ha): 50
- Plant response rating ([22]; 125 g ai/ha): 60
- Plant response rating ([22]; 250 g ai/ha): 70
- Plant response rating ([23]; 31 g ai/ha): 60
- Plant response rating ([23]; 62 g ai/ha): 65
- Plant response rating ([23]; 125 g ai/ha): 70
- Plant response rating ([23]; 250 g ai/ha): 75

Structure (SMILES): O=C1NCCC(c2cccc(C(F)(F)F)c2)C1C(=O)Nc1cccc(F)c1F (stereo not shown) [Compound 9, N-(2,3-difluorophenyl)-2-oxo-4-[3-(trifluoromethyl)phenyl]-3-piperidinecarboxamide]
- Plant response rating, Barnyardgrass ([1]; 500 g ai/ha, 0 is no effect, 100 is complete control): 90
- pest or weed control at 125 g/ha ([1]; Echinochloa crus-galli, pre-emergence, 240 h, 125 g ai/ha, 0 no effect, 100 complete control, read-out: Barnyardgrass plant response rating): 90%
- pest or weed control at 125 g/ha ([5]; Setaria faberi, pre-emergence, 240 h, 125 g ai/ha, read-out: Foxtail, Giant plant response rating): 90%
- pest or weed control at 500 g/ha ([5]; Setaria faberi, pre-emergence, 240 h, 500 g ai/ha, read-out: Foxtail, Giant plant response rating): 90%
- pest or weed control at 125 g/ha ([6]; Amaranthus retroflexus, pre-emergence, 240 h, 125 g ai/ha, read-out: Pigweed plant response rating): 0%
- pest or weed control at 500 g/ha ([6]; Amaranthus retroflexus, pre-emergence, 240 h, 500 g ai/ha, read-out: Pigweed plant response rating): 0%
- pest or weed control at 125 g/ha ([7]; Echinochloa crus-galli, post-emergence, 240 h, 125 g ai/ha, read-out: Plant response rating, Barnyardgrass): 80%
- pest or weed control at 500 g/ha ([7]; Echinochloa crus-galli, post-emergence, 240 h, 500 g ai/ha, read-out: Plant response rating, Barnyardgrass): 90%
- pest or weed control at 125 g/ha ([11]; Setaria faberi, post-emergence, 240 h, 125 g ai/ha, read-out: Plant response rating, Foxtail, Giant): 80%
- pest or weed control at 500 g/ha ([11]; Setaria faberi, post-emergence, 240 h, 500 g ai/ha, read-out: Plant response rating, Foxtail, Giant): 90%
- pest or weed control at 125 g/ha ([12]; Amaranthus retroflexus, post-emergence, 240 h, 125 g ai/ha, read-out: Plant response rating, Pigweed): 0%
- pest or weed control at 500 g/ha ([12]; Amaranthus retroflexus, post-emergence, 240 h, 500 g ai/ha, read-out: Plant response rating, Pigweed): 0%
- plant injury at 125 g/ha ([13]; Triticum aestivum, post-emergence, 240 h, 125 g ai/ha, read-out: Plant response rating, Wheat): 20%
- plant injury at 500 g/ha ([13]; Triticum aestivum, post-emergence, 240 h, 500 g ai/ha, read-out: Plant response rating, Wheat): 40%
- Corn plant response rating (crop injury, 0 = no effect, 100 = complete kill) at 125 g/ha (corn (Zea mays); Zea mays, post-emergence, 240 h, 125 g ai/ha): 40%
- Corn plant response rating (crop injury, 0 = no effect, 100 = complete kill) at 500 g/ha (corn (Zea mays); Zea mays, post-emergence, 240 h, 500 g ai/ha): 80%
- plant injury at 250 g/ha (rice (Oryza sativa) [16]; Oryza sativa, 250 g ai/ha, scale 0 to 100, read-out: Plant response rating): 0%
- pest or weed control at 250 g/ha ([17]; Cyperus difformis, 250 g ai/ha, scale 0 to 100, read-out: Plant response rating): 0%
- pest or weed control at 250 g/ha ([18]; Heteranthera limosa, 250 g ai/ha, scale 0 to 100, read-out: Plant response rating): 90%
- pest or weed control at 250 g/ha ([19]; Echinochloa crus-galli, 250 g ai/ha, scale 0 to 100, read-out: Plant response rating): 75%
- Plant response rating (rice (Oryza sativa) [20]; 1000 g ai/ha): 10
- Plant response rating ([21]; 1000 g ai/ha): 0
- Plant response rating ([22]; 1000 g ai/ha): 98
- Plant response rating ([23]; 1000 g ai/ha): 80
